Measurements reported in patent US11572402B2, “Method for promoting diversification of antibody variable region” (Chiome Bioscience Inc., priority 2017, dated 2023).

System: BMAA4-2 cell line
Test: Sequence change analysis of antibody variable regions according to NGS (NUS, SBL)
Assay type: cell-based, chicken
Conditions: BMAA4-2 cells, versus negative control sample
Description: A frozen stock of the BMAA4-2 cell line (3.0×10^6 cells) was awaken with 10 mL of CS(−) medium, using a 25 cm^2 Flask, and the cells were then cultured in a CO2 incubator (39.5° C., 5% CO2). On the following day, 2 mL each of a CS(−) medium, to which each drug had been added, was added into each well of a 12-well dish (Nunc, 150628), and the cells were then seeded thereon to a cell density of 6.0×10^4 cells/mL (wherein the cell concentration and the survival rate were measured using CASY cell counter). After individual samples had been cultured for 2 days, the samples were subcultured under the same conditions to result in a cell density of 1.0×10^4 cells/mL. After completion of the culture for 3 days, individual samples were subcultured in a 25 cm^2 Flask to result in a cell density of 6.0×10^4 cells/mL with respect to 10 mL of the medium under the same conditions. After completion of the culture for 2 days (Day 7 of the culture), individual samples (in each amount of 2.0×10^6 cells) were recovered in a 1.5-mL tube, and thereafter, a supernatant was removed by centrifugation at 1,000×g for 5 min. The residue was re-suspended in 1 mL of D-PBS(−) (Nacalai Tesque, 14249-24), and a supernatant was then removed by centrifugation at 1,000×g for 5 min. The residue was preserved at −80° C. Moreover, individual samples from the remaining cells were subcultured in a 12-well dish to result in a cell density of 6.0×10^4 cells/mL with respect to 2 mL of the medium under the same conditions. After completion of the culture for 2 days, individual samples were subcultured under the same conditions to result in a cell density of 1.0×10^4 cells/mL. After completion of the culture for 3 days, individual samples were subcultured in a 25 cm^2 Flask to result in a cell density of 6.0×10^4 cells/mL with respect to 10 mL of the medium under the same conditions. After completion of the culture for 2 days (Day 14 of the culture), individual samples (in each amount of 2.0×10^6 cells) were recovered in a 1.5-mL tube, and thereafter, a supernatant was removed by centrifugation at 1,000×g for 5 min. The residue was re-suspended in 1 mL of D-PBS(−), and a supernatant was then removed by centrifugation at 1,000×g for 5 min. The residue was preserved at −80° C.
A frozen stock of the BMAA4-2 cell line (3.0×10^6 cells) was awaken with 10 mL of CS(−) medium, using a 25 cm^2 Flask, and the cells were then cultured in a CO2 incubator (39.5° C., 5% CO2). On the following day, 1 mL each of a CS(−) medium, to which each drug had been added, was added into each well of a 24-well dish, and the cells were then seeded thereon to a cell density of 3.0×10^5 cells/mL (wherein the cell concentration and the survival rate were measured using CASY cell counter). […]

In the case of Cc1nc(NC(=O)N2CCC[C@H]2C(N)=O)sc1-c1csc(C(C)(C)C)n1 [A66], the “NUS (number of unique sequences), antibody heavy chain variable region amino acid sequences” value (heavy chain) is reported as “higher values than the negative control sample”, the “SBL (sum of branch length), antibody heavy chain variable region amino acid sequences” value (heavy chain) is reported as “higher values than the negative control sample” and the “NUS (number of unique sequences), antibody light chain variable region amino acid sequences” value (light chain) is reported as “higher values than the negative control sample”. For the same compound, the “SBL (sum of branch length), antibody light chain variable region amino acid sequences” value (light chain) was “higher values than the negative control sample”.
